# Data published in patent publication US11420994B2, “Carbon-monoxide-releasing molecules and therapeutic applications thereof” (GEORGIA STATE UNIVERSITY RESEARCH FOUNDATION, INC., priority 2016, dated 2022).
# Read-outs that look alike come from different tables or passages of the source.
# Legend:
# [1] = test system: pulmonary arterial hypertension; settings: breathing CO gas (e.g., 150 ppm), after 16 weeks; cited from earlier work
# [2] = MTT cytotoxicity test of mannose-modified reactants
# Method: The cytotoxicity test, MTT assay, was performed to define the concentration using TPCPD-M (57, 1 mM) and BCN-M (61, 1 mM) (FIG. 4).
# [3] = test system: TNF-α; assay: LPS-induced accumulation of TNF-α in RAW 264.7 culture supernatant (ELISA), two-component system; format: cell-based, mouse
# Method: RAW264.7 cell were seeded in 6-well plates and incubated overnight. Cells were then stimulated with LPS (10 mg/mL) for 1 h. TPCPD (1) and BCN (6a) (different concentrations) were added to well after 1 hr LPS treatment (same for all wells). As a control, the product (31) was used at same concentration as the anti-inflammation test to confirm that the suppression of TNF-α is result of CO instead of the reagent (or product) themselves (compounds 1, 6a, and 31). TNF-α secretion in the medium was measured with an eBioscience kit (mouse TNF-α ELISA kit, eBioscience, San Diego, Calif., USA).
# TNF-α is a major pro-inflammatory cytokine, mainly secreted from macrophages and dendritic cells. Its production is induced in vitro by stimulation with LPS. The accumulation of TNF-α was assessed by ELISA in the culture supernatant of the macrophage cell line, RAW 264.7 (FIG. 5). The cells were stimulated for 1 h and then co-treated by […] for 24 h. […] A 50% decrease of the LPS-induced accumulation of TNF-α was observed after co-treatment with TPCPD-M and BCN-M at the respective concentration of 1 mM+1 mM.
# [4] = CO release kinetics by increase of fluorescence intensity; format: physicochemical
# Method: Compound 10a was dissolved indifferent solvents including CH2Cl2 (25° C.), CH3CN (25° C.), DMSO (25° C.), DMSO/PBS (10:1, 25° C.), DMSO/PBS (5:1, 25° C.), and DMSO/PBS (5:1, 37° C.) to give a final concentration of around 100 μM, and CO release was monitored by fluorescence intensity at 450 nm. Each experiment was repeated three times independently. The CO release rate (first order reaction rate) in DCM, CH3CN, DMSO, DMSO/PBS (10:1), DMSO/PBS (5:1), and DMSO/PBS (5:1, 37° C.) were different and their individual rate constant was calculated to be 2.3±0.2, 3.6±0.4, 6.6±0.6, 7.7±0.6, 11.0±1.4 and 22.4±3.2 h^−1, respectively. […] The CO release rate increased along with the polarity of the solvent.
# [5] = Fluorescence properties of the cycloaddition products; format: physicochemical
# [6] = Intramolecular DAR in DMSO/PBS (7.4) at 37° C., time to completion; format: physicochemical
# Method: A solution of compound 10b in DMSO/PBS (7.4) was incubated at 37° C. for 3 hrs, after which the intramolecular DAR reaction finished. Then the reaction mixture was extracted with ethyl acetate, and the obtained organic layer was dried with anhydrous Na2SO4, filtered and concentrated. Thus obtained pale yellow solid was characterized by ^1H NMR as the intramolecular DAR product. ^1H NMR (400 MHz, CDCl3): δ 9.27 (d, J=7.2 Hz, 1H), 7.88 (d, J=8.0 Hz, 1H), 7.79 (d, J=8.0 Hz, 1H), 7.71 (t, J=7.6 Hz, 1H), 7.61-7.53 (m, 5H), 7.32 (t, J=8.0 Hz, 1H), 7.08 (s, 1H), 7.04 (d, J=7.2 Hz, 1H), 5.37-5.18 (m, 1H), 3.53 (t, J=6.0 Hz, 2H), 3.05 (t, J=6.0 Hz, 2H), 1.32 (d, J=6.8 Hz, 6H).
# A solution of compound 10b in DMSO/PBS (7.4) was incubated at 37° C. for 24 hrs, after which the intramolecular DAR reaction was finished. Then the reaction mixture was extracted with ethyl acetate, and the obtained organic layer was dried with anhydrous Na2SO4. Filtered and concentrated, the obtained pale yellow solid was characterized by ^1H NMR as the intramolecular DAR product. ^1H NMR (400 MHz, CDCl3) δ 9.12 (d, J=8.0 Hz, 1H), 7.83 (d, J=8.4 Hz, 1H), 7.73 (d, J=8.4 Hz, 1H), 7.68 (t, J=8.0 Hz, 1H), 7.63-7.54 (m, 3H), 7.36 (d, J=8.0 Hz, 2H), 7.24 (t, J=8.0 Hz, 1H), 6.32 (d, J=8.0 Hz, 1H), 5.29-5.26 (m, 1H), 3.57-3.46 (m, 2H), 3.05-2.94 (m, 2H), 2.12 (s, 3H), 1.33 (d, J=6.8 Hz, 6H). […]
# [7] = Determination of CO release rates (fluorescence or UV absorbance); format: physicochemical; settings: DMSO/PBS (4:1) at 37° C.
# Method: For CO prodrugs with naphthalene scaffold, the CO release rate is easily done by monitoring the fluorescence intensity of the cyclized product. For the others, the CO release rate was determined by employing the UV absorbance difference between the prodrugs and the cyclized product.
# [8] = test system: TNF-α; assay: TNF-α ELISA in LPS treated RAW 264.7 cells pre-treated with CO prodrug; format: cell-based, mouse; settings: pre-treated 5 h, then LPS 1 h
# Method: RAW 264.7 cells were seeded in the 48-well plate one day before the experiment.
# LPS was used to initialize the inflammatory response in RAW 264.7 cells and trigger the expression of cytokines. RAW 264.7 cells were pre-treated with different concentrations of 10b or 44b product for 5 hours. Thereafter, […] LPS was added with into the cell culture media. For TNF-α test, the cell culture supernatant was collected after 1 hour of LPS treatment. For IL-6 test, the cell culture supernatant was collected after 4 hours of LPS treatment. Cell culture without LPS treatment was used as control.
# (§1) 10a-10d, and 100 with different release rates were chosen to test their inhibitory effect against lipopolysaccharide (LPS) induced TNF-α secretion in RAW 264.7 cells. […] This was followed by the treatment of LPS for another 1 h. Then the cell culture supernatants were subjected to ELISA assay for TNF-α levels.
# [9] = test system: RAW 264.7 cells; assay: Cytotoxicity of CO prodrugs and inactive products (MTT); format: cell-based, mouse; settings: 24 h incubation
# Method: The toxicity of compound 10b and product of compound 10b (44b) after CO release were tested on RAW 264.7 cells, which is a mouse macrophage cell line used for anti-inflammation test. Different concentrations of 10b and 44b product were added into the cell culture media (Dulbecco's Modified Eagle's Medium supplemented with 10% heat inactivated fetal bovine serum and 1% penicillin-streptomycin). All samples with different concentrations of 10b or 44b product contained 1% DMSO in the cell culture media. RAW 264.7 cells were seeded in 96-well plate one day before the experiment. The cells were then incubated with the compound for 24 hours at 37° C. with 5% CO2. The cell viability was tested by MTT assay. Basically, after 24 hours of incubation, 0.5 mg/mL MTT (3-(4,5-Dimethylthiazol-2-yl)-2,5-Diphenyltetrazolium Bromide) was added into the cell culture and incubated for 4 hours. Thereafter, the supernatant was removed and 100 μL of DMSO were added into the wells containing cells. After shaking gently for 3 minutes, absorbance at 570 nm was read by plate reader.
# as §1
# [10] = CO release kinetics by increase of fluorescence intensity; format: physicochemical; settings: PBS with 1% DMSO; 1% of DMSO in PBS (pH = 7.4); read-out: t1/2 half-life for CO release (converted)
# [11] = of the cycloaddition products 44a-44f and 100a
molecule,measurement,setting,value
carbon monoxide [CO],decrease of pulmonary vascular resistance compared to the pre-therapy value,[1],20%
O=C(NCCOCCOCCOC1OC(CO)C(O)C(O)C1O)OCC1[C@H]2CCC#CCC[C@@H]12 (some centres unmarked) [BCN-M],cytotoxicity,"[2]; 24 h of treatment, within 1 mM",none of the compounds led to any cytotoxicity
same,decrease of the LPS-induced accumulation of TNF-α,"[3]; co-treatment with TPCPD-M and BCN-M 1 mM+1 mM, 24 h",50%
same,inhibition of the LPS-induced accumulation of TNF-α,[3]; tested separately,do not lead to any inhibition
C#CCN(C)C(=O)C1=C2C(=C(c3ccccc3)C1=O)c1cccc3cccc2c13 [Compound 10a],k CO release rate,[4]; CH2Cl2 at room temperature (25° C.),2.3 ± 0.2 h⁻¹
same,CO release rate constant (first order),[4]; CH3CN (25° C.),3.6 ± 0.4 h⁻¹
same,CO release rate constant (first order),[4]; DMSO (25° C.),6.6 ± 0.6 h⁻¹
same,CO release rate constant (first order),"[4]; DMSO/PBS (5:1, 25° C.)",11.0 ± 1.4 h⁻¹
same,CO release rate constant (first order),"[4]; DMSO/PBS (10:1, 25° C.)",7.7 ± 0.6 h⁻¹
same,k CO release rate,[4]; DMSO/PBS (pH = 7.4) 5:1 at 37° C.,22.4 ± 3.2 h⁻¹
same,λem emission wavelength,[5]; [11],450 nm
same,λex excitation wavelength,[5]; [11],371 nm
same,Φ quantum yield,"[5]; of the cycloaddition products 44a-44f and 100a in MeOH, quinine sulfate as the standard",0.21
same,incubation time after which the intramolecular DAR reaction was finished,[6],5 min
C#CCOc1ccccc1C1=C2C(=C(C(=O)N3CCOCC3)C1=O)c1cccc3cccc2c13 [Compound 51],K CO release,[7],0.31 ± 0.003 h⁻¹
same,incubation time after which the intramolecular DAR reaction was finished,[6],960 min
O=C1c2c(cc(-c3ccccc3)c3c2-c2cccc4cccc-3c24)CCN1CCOC1OC(CO)C(O)C(O)C1O (centres unmarked) [Compound 100a],LPS-induced TNF-α expression / secretion,[8],dose-dependently inhibited
same,effect on cell viability,[9],did not show any effect on cell viability at up to 50 μM
"NCC(=O)O.[C-]#[O+].[C-]#[O+].[C-]#[O+].[Cl][Ru] [CORM3, reference compound]",decrease in cell viability,[2]; 1 mM,30%
C#CCCN(CCOC1OC(CO)C(O)C(O)C1O)C(=O)C1=C2C(=C(c3ccccc3)C1=O)c1cccc3cccc2c13 (centres unmarked) [Compound 100],half-life,"[4]; DMSO/PBS 5:1, DMSO/PBS (pH = 7.4) 5:1 at 37° C., read-out: t1/2 half-life for CO release (converted)",2.1 h
same,effect on cell viability,[9],did not show any effect on cell viability at up to 50 μM
same,K CO release,[7],0.33 ± 0.01 h⁻¹
same,half-life,[10],0.18 h
